Results on 23 compounds are retold here after patent US11083707B2, “Substituted indoline derivatives as dengue viral replication inhibitors” (JANSSEN PHARMACEUTICALS, INC., priority 2017, dated 2021).

The test system of one series is DENV-2 16681 strain. Briefly: DENV-2 antiviral assay (eGFP fluorescence, Vero cells). Format: cell-based, Dengue virus. As to conditions: DENV-2 16681 eGFP, MOI 0.5, 3 days. As for the experimental part:
The antiviral activity of all the compounds of the invention was tested against the DENV-2 16681 strain which was labeled with enhanced green fluorescent protein (eGPF). The culture medium consists of minimal essential medium supplemented with 2% of heat-inactivated fetal calf serum, 0.04% gentamycin (50 mg/mL) and 2 mM of L-glutamine. Vero cells, obtained from ECACC, were suspended in culture medium and 25 μL was added to 384-well plates (2500 cells/well), which already contain the antiviral compounds. Typically, these plates contain a 5-fold serial dilution of 9 dilution steps of the test compound at 200 times the final concentration in 100% DMSO (200 nL). […] Finally, each plate contains wells which are assigned as virus controls (containing cells and virus in the absence of compound), cell controls (containing cells in the absence of virus and compound) and medium controls (containing medium in the absence of cells, virus and compounds). To the wells assigned as medium control, 25 μL of culture medium was added instead of Vero cells. Once the cells were added to the plates, the plates were incubated for 30 minutes at room temperature to allow the cells to distribute evenly within the wells. Next, the plates were incubated in a fully humidified incubator (37° C., 5% CO2) until the next day. Then, DENV-2 strain 16681, labeled with eGFP, was added at a multiplicity of infection (MOI) of 0.5. Therefore, 15 μL of virus suspension was added to all the wells containing test compound and to the wells assigned as virus control. In parallel, 15 μL of culture medium was added to the medium and cell controls. Next, the plates were incubated for 3 days in a fully humidified incubator (37° C., 5% CO2). At the day of the read out, the eGFP fluorescence was measured using an automated fluorescence microscope at 488 nm (blue laser). Using an in-house LIMS system, inhibition dose response curves for each compound were calculated and the half maximal effective concentration (EC50) was determined. Therefore, the percent inhibition (I) for every test concentration is calculated using the following formula: I=100*(ST-SCC)/(SVC-SCC), ST, SCC and SVC are the amount of eGFP signal in the test compound, cell control and virus control wells, respectively. The EC50 represents the concentration of a compound at which the virus replication is inhibited with 50%, as measured by a 50% reduction of the eGFP fluorescent intensity compared to the virus control. The EC50 is calculated using linear interpolation (Table 1).

The nature of the next series: in vitro. As to conditions: African green monkey.
Setting [1] is: Dengue virus, DENV2, Vero, 72 h.

On to `COc1cc(NC(C(=O)N2CCc3ccc(C(F)(F)F)cc32)c2ccc(F)cc2OCCO)cc(-n2cncn2)c1` (racemic) [Compound 1, 2-(4-fluoro-2-(2-hydroxyethoxy)phenyl)-2-((3-methoxy-5-(1H-1,2,4-triazol-1-yl)phenyl)amino)-1-(6-(trifluoromethyl)indolin-1-yl)ethanone], for which the EC50 in the series on DENV-2 16681 strain (setting [1]) came out at 3.1 nM. Further, the CC50 in “in vitro” came out at 12000 nM.
For `COc1cc(NC(C(=O)N2CCc3cc(OC)c(C(F)(F)F)cc32)c2ccc(F)cc2OCCO)cc(-n2cncn2)c1` (racemic) [Compound 2, 2-(4-fluoro-2-(2-hydroxyethoxy)phenyl)-2-((3-methoxy-5-(1H-1,2,4-triazol-1-yl)phenyl)amino)-1-(5-methoxy-6-(trifluoromethyl)indolin-1-yl)ethanone] the same measures were 2.8 nM and 13000 nM.
Compound `COc1cc(NC(C(=O)N2CCc3ccc(OC(F)(F)F)cc32)c2ccc(F)cc2OCCO)cc(-n2cncn2)c1` (racemic) [Compound 3, 2-(4-fluoro-2-(2-hydroxyethoxy)phenyl)-2-((3-methoxy-5-(1H-1,2,4-triazol-1-yl)phenyl)amino)-1-(6-(trifluoromethoxy)indolin-1-yl)ethanone] came in with an EC50 in the series with DENV-2 16681 strain (setting [1]) of 1.9 nM. This compound came in with a CC50 in the series “in vitro” of 8500 nM.
Taken in the same sequence, the figures for `COc1cc(NC(C(=O)N2CCc3cc(OC)c(C(F)(F)F)cc32)c2ccc(Cl)cc2OCCO)cc(-n2cncn2)c1` (racemic) [Compound 5, 2-(4-chloro-2-(2-hydroxyethoxy)phenyl)-2-((3-methoxy-5-(1H-1,2,4-triazol-1-yl)phenyl)amino)-1-(5-methoxy-6-(trifluoromethyl)indolin-1-yl)ethanone] were 0.82 nM and 11000 nM.
Taken in the same sequence, the figures for `COc1cc(NC(C(=O)N2CCc3ccc(OC(F)(F)F)cc32)c2ccc(Cl)cc2OCCO)cc(-n2cncn2)c1` (racemic) [Compound 6, 2-(4-chloro-2-(2-hydroxyethoxy)phenyl)-2-((3-methoxy-5-(1H-1,2,4-triazol-1-yl)phenyl)amino)-1-(6-(trifluoromethoxy)indolin-1-yl)ethanone] were 0.97 nM and 3300 nM.
For `COc1cc(NC(C(=O)N2CCc3cc(F)c(C(F)(F)F)cc32)c2ccc(Cl)cc2OCCO)cc(-n2cncn2)c1` (racemic) [Compound 7, 2-(4-chloro-2-(2-hydroxyethoxy)phenyl)-1-(5-fluoro-6-(trifluoromethyl)indolin-1-yl)-2-((3-methoxy-5-(1H-1,2,4-triazol-1-yl)phenyl)amino)ethanone] the same measures were 3 nM and 10000 nM.
In turn, `COc1cc(NC(C(=O)N2CCc3cc(OC)c(OC(F)(F)F)cc32)c2ccc(Cl)cc2OCCO)cc(-n2cncn2)c1` (racemic) [Compound 8, 2-(4-chloro-2-(2-hydroxyethoxy)phenyl)-2-((3-methoxy-5-(1H-1,2,4-triazol-1-yl)phenyl)amino)-1-(5-methoxy-6-(trifluoromethoxy)indolin-1-yl)ethanone] gave an EC50 in the series on DENV-2 16681 strain (setting [1]) of 2.1 nM. In “in vitro”, this compound had a CC50 of 9500 nM.
For `COc1cc(NC(C(=O)N2CCc3cc(F)c(OC(F)(F)F)cc32)c2ccc(Cl)cc2OCCO)cc(-n2cncn2)c1` (racemic) [Compound 9, 2-(4-chloro-2-(2-hydroxyethoxy)phenyl)-1-(5-fluoro-6-(trifluoromethoxy)indolin-1-yl)-2-((3-methoxy-5-(1H-1,2,4-triazol-1-yl)phenyl)amino)ethanone] the same measures were 1.6 nM and 3900 nM.
The compound `COc1cc(NC(C(=O)N2CCc3c(C)cc(OC(F)(F)F)cc32)c2ccc(Cl)cc2OCCO)cc(-n2cncn2)c1` (racemic) [Compound 10, 2-(4-chloro-2-(2-hydroxyethoxy)phenyl)-2-((3-methoxy-5-(1H-1,2,4-triazol-1-yl)phenyl)amino)-1-(4-methyl-6-(trifluoromethoxy)indolin-1-yl)ethanone] yielded an EC50 in the series with DENV-2 16681 strain (setting [1]) of 0.35 nM. The CC50 in the series “in vitro” turned out to be 10000 nM.
Taken in the same sequence, the figures for `COc1cc(NC(C(=O)N2CCc3ccc(C(F)(F)F)cc32)c2ccc(Cl)cc2OCCCC(=O)O)cc(-n2cncn2)c1` (racemic) [Compound 11, 4-(5-chloro-2-(1-((3-methoxy-5-(1H-1,2,4-triazol-1-yl)phenyl)amino)-2-oxo-2-(6-(trifluoromethyl)indolin-1-yl)ethyl)phenoxy)butanoic acid] were 0.31 nM and 15000 nM.
In the case of `COc1cc(NC(C(=O)N2CCc3cc(OC)c(C(F)(F)F)cc32)c2ccc(Cl)cc2OCCCC(=O)O)cc(-n2cncn2)c1` (racemic) [Compound 12, 4-(5-chloro-2-(1-((3-methoxy-5-(1H-1,2,4-triazol-1-yl)phenyl)amino)-2-(5-methoxy-6-(trifluoromethyl)indolin-1-yl)-2-oxoethyl)phenoxy)butanoic acid], a half-maximal effect in the series on DENV-2 16681 strain (setting [1]) (EC50) was put at 2.2 nM. The CC50 in the series “in vitro” worked out at 13000 nM.
Taken in the same sequence, the figures for `COc1cc(NC(C(=O)N2CCc3ccc(OC(F)(F)F)cc32)c2ccc(Cl)cc2OCCCC(=O)O)cc(-n2cncn2)c1` (racemic) [Compound 13, 4-(5-chloro-2-(1-((3-methoxy-5-(1H-1,2,4-triazol-1-yl)phenyl)amino)-2-oxo-2-(6-(trifluoromethoxy)indolin-1-yl)ethyl)phenoxy)butanoic acid] were 0.23 nM and 11000 nM.
Taken in the same sequence, the figures for `COc1cc(NC(C(=O)N2CCc3ccc(OC(F)(F)F)cc32)c2ccc(Cl)cc2OCCC(C)(C)C(=O)O)cc(-n2cncn2)c1` (racemic) [Compound 14, 4-(5-chloro-2-(1-((3-methoxy-5-(1H-1,2,4-triazol-1-yl)phenyl)amino)-2-oxo-2-(6-(trifluoromethoxy)indolin-1-yl)ethyl)phenoxy)-2,2-dimethylbutanoic acid] were 0.41 nM and 10000 nM.
Taken in the same sequence, the figures for `COc1cc(NC(C(=O)N2CCc3cc(F)c(OC(F)(F)F)cc32)c2ccc(Cl)cc2OCCCC(=O)O)cc(-n2cncn2)c1` (racemic) [Compound 15, 4-(5-chloro-2-(2-(5-fluoro-6-(trifluoromethoxy)indolin-1-yl)-1-((3-methoxy-5-(1H-1,2,4-triazol-1-yl)phenyl)amino)-2-oxoethyl)phenoxy)butanoic acid] were 0.22 nM and 11000 nM.
In the series with DENV-2 16681 strain, `COc1cc(NC(C(=O)N2CCc3ccc(C(F)(F)F)cc32)c2ccc(F)cc2OCCO)cc(-n2cncn2)c1` (single isomer, unassigned) [Compound 1A] registered an EC50 of 1000 nM. In the series “in vitro”, this compound returned a CC50 of 7700 nM.
For `COc1cc(NC(C(=O)N2CCc3cc(OC)c(C(F)(F)F)cc32)c2ccc(F)cc2OCCO)cc(-n2cncn2)c1` (single isomer, unassigned) [Compound 2A] the same measures were 270 nM and 12000 nM.
With `COc1cc(NC(C(=O)N2CCc3ccc(OC(F)(F)F)cc32)c2ccc(F)cc2OCCO)cc(-n2cncn2)c1` (single isomer, unassigned) [Compound 3A], it took 520 nM to reach a half-maximal effect in the series with DENV-2 16681 strain (EC50). In addition, the CC50 in “in vitro” turned out to be 11000 nM.
In the series on DENV-2 16681 strain, `COc1cc(NC(C(=O)N2CCc3ccc(C(F)(F)F)cc32)c2ccc(Cl)cc2OCCO)cc(-n2cncn2)c1` (single isomer, unassigned) [Compound 4A] yielded a 50% effective concentration (EC50) of 1200 nM. The same compound came in with a CC50 in “in vitro” of 7800 nM.
For the compound `COc1cc(NC(C(=O)N2CCc3cc(OC)c(C(F)(F)F)cc32)c2ccc(Cl)cc2OCCO)cc(-n2cncn2)c1` (single isomer, unassigned) [Compound 5A], the EC50 in the series on DENV-2 16681 strain came to 42 nM. The same compound had a CC50 in the series “in vitro” of 11000 nM.
For the compound `COc1cc(NC(C(=O)N2CCc3cc(F)c(C(F)(F)F)cc32)c2ccc(Cl)cc2OCCO)cc(-n2cncn2)c1` (single isomer, unassigned) [Compound 7A], in the series on DENV-2 16681 strain, the concentration giving a half-maximal response (EC50) was found to be 430 nM. The compound also gave a CC50 in “in vitro” of 11000 nM.
`COc1cc(NC(C(=O)N2CCc3c(C)cc(OC(F)(F)F)cc32)c2ccc(Cl)cc2OCCO)cc(-n2cncn2)c1` (single isomer, unassigned) [Compound 10A]: in the series with DENV-2 16681 strain, the EC50 is 63 nM. For the same compound, in the series “in vitro”, the CC50 came to 10000 nM.
`COc1cc(NC(C(=O)N2CCc3ccc(C(F)(F)F)cc32)c2ccc(Cl)cc2OCCCC(=O)O)cc(-n2cncn2)c1` (single isomer, unassigned) [Compound 11A] displayed an EC50 with DENV-2 16681 strain of 45 nM. For the same compound, the CC50 in the series “in vitro” stood at 11000 nM.
For `COc1cc(NC(C(=O)N2CCc3ccc(OC(F)(F)F)cc32)c2ccc(Cl)cc2OCCC(C)(C)C(=O)O)cc(-n2cncn2)c1` (single isomer, unassigned) [Compound 14A] the same measures were 420 nM and 9100 nM.

A word on the EC50: it is the concentration needed to bring the measured effect to its halfway point.
